Data on 25 molecules can be found in patent US20240400561A1, “NOVEL SUBSTITUTED SULFONYLUREA COMPOUNDS AS INHIBITORS OF INTERLEUKIN-1 ACTIVITY” (Viva Star Biosciences (Suzhou) Co., Ltd., priority 2021, published 2024).

For the assay, the target named is T1, NLRP3 (Homo sapiens, UniProt Q96P20).
T1 construct: Seed THP-1 cells (5.56*10^5 cells/mL) containing 1.0 ug/mL LPS; endogenous in cells; host or cells: THP-1 cells
Briefly: THP-1 cell assay (LPS priming, nigericin), IL1β release by HTRF; called pyroptosis assay, THP IC50. Type of assay: cell-based. The note with it: NLRP3 inhibitory activity; THP-1 cells, 1.0 ug/mL LPS, compound 3 hrs, nigericin 5 uM 1 hr, IL1β in supernatant. As to the method:
The following method was used for compound screening. • 1. Seed THP-1 cells (5.56*10^5 cells/mL) containing 1.0 ug/mL LPS (SIGMA, L6529) in 45 uL RPMI 1640 medium (without FBS) into 384-well plate (Thermo Scientific, 164688). • 2. Add 5 uL compound (10 doses starting from 5 uM, 1:3 dilution) or vehicle (0.05% DMSO in medium) to the appropriate wells. • 3. Centrifuge the plates at 1000 rpm for 2 mins and incubate for 3 hrs at 37° C., 5% CO2. • 4. Add 5 uL nigericin (MEC, HY-100381) (final conc. 5 uM) to sample wells and positive control wells; add 5 uL RPMI 1640 medium to negative control wells. • 5. Centrifuge plates at 1000 rpm for 2 mins and incubate for 1 hr at 37° C., 5% CO2. • 6. At the end of the incubation period, centrifuge plates at 1000 rpm for 6 mins and transfer 8 uL supernatant into 384-well assay plates (PerkinElmer, 6008280). • 7. Add 8 ul RPMI 1640 medium into each well and spin down for 10 secs. • 8. Prepare the standard solutions and pre-mixed IL1β antibody solution of Human […] kits (PerkinElmer, 62HIL1BPEH) according to the instruction. • 9. Add 16 uL standard solutions into clear wells of 384-well assay plates. • 10. Add 4 uL pre-mixed IL1β antibody solution to all wells including sample wells, positive control wells, negative control wells and standard solutions wells. • 11. Seal the plates, spin down for 10 secs, incubation for overnight at RT and read on an HTRF® compatible reader (BMG LABTECH, PHERAstar FS). • 12. The concentrations of IL1β for treated wells are calculated by the standard curve. • 13. The IC50 data is fitted to a non-liner regression equation (log inhibitor vs. response—Variable slope four parameters)).
Background: TR-FRET usually uses a lanthanide donor and a delayed reading to cut background.

pIC50: −log10 of the molar value. Bounds are passed on as bounds.

T1 sequence (Q96P20 whole entry): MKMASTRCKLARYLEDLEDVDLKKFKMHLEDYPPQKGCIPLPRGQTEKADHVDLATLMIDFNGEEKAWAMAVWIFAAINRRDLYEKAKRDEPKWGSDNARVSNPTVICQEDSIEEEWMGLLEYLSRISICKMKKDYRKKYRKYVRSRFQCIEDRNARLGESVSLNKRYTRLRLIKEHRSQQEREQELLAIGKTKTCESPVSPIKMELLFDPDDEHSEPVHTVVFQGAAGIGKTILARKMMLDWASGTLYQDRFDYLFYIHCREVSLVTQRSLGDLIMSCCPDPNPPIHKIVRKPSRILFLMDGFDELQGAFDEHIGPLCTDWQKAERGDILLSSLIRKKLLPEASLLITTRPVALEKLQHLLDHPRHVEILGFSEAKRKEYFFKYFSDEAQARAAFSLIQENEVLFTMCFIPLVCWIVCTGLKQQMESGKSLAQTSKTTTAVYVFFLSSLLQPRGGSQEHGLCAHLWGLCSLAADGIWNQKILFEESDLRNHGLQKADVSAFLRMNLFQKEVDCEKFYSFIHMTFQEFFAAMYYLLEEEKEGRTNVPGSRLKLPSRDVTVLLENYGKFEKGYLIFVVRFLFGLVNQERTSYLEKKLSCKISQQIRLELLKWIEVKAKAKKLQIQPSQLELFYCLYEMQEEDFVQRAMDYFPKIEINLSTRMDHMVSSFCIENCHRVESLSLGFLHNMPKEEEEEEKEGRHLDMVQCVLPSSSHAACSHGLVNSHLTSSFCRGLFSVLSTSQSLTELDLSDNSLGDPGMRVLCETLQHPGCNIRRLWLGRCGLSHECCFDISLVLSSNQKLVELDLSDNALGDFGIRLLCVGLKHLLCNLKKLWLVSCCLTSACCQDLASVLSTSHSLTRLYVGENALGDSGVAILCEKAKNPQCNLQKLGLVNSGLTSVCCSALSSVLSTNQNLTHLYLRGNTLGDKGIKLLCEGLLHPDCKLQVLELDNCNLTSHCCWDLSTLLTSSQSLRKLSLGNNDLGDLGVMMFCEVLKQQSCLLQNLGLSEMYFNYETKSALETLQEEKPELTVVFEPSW

The pIC50 is the IC50 on a negative log10 scale, so that one unit is a factor of ten. As to `CO[C@@H](C)Cn1ccc(S(=O)(=O)NC(=O)Nc2c3c(cc(C)c2-c2ccn4nccc4c2)CCC3)n1` [Example 26, (S)-1-(2-methoxypropyl)-N-((6-methyl-5-(pyrazolo[1,5-a]pyridin-5-yl)-2,3-dihydro-1H-inden-4-yl)carbamoyl)-1H-pyrazole-3-sulfonamide], the pIC50 was no less than 7.52.
In the case of `CO[C@H](C)Cn1ccc(S(=O)(=O)NC(=O)Nc2c3c(cc(C)c2-c2ccn4nccc4c2)CCC3)n1` [Example 27, (R)-1-(2-methoxypropyl)-N-((6-methyl-5-(pyrazolo[1,5-a]pyridin-5-yl)-2,3-dihydro-1H-inden-4-yl)carbamoyl)-1H-pyrazole-3-sulfonamide], the pIC50 is no less than 7.52.
Under `Cc1cc2c(c(NC(=O)NS(=O)(=O)c3cncc(N(C)C4CC4)c3)c1-c1ccn3nccc3c1)CCC2` [Example 29, 5-(cyclopropyl(methyl)amino)-N-((6-methyl-5-(pyrazolo[1,5-a]pyridin-5-yl)-2,3-dihydro-1H-inden-4-yl)carbamoyl)pyridine-3-sulfonamide] stands 6.52 to 7.52; under `CN(c1cncc(S(=O)(=O)NC(=O)Nc2c(-c3ccn4nccc4c3)ccc3c2CCC3)c1)C1CC1` [Example 30, 5-(cyclopropyl(methyl)amino)-N-((5-(pyrazolo[1,5-a]pyridin-5-yl)-2,3-dihydro-1H-inden-4-yl)carbamoyl)pyridine-3-sulfonamide], 6.52 to 7.52; under `O=C(Nc1c(-c2ccn3nccc3c2)ccc2c1CCC2)NS(=O)(=O)c1cncc(NC2CC2)c1` [Example 31, 5-(cyclopropylamino)-N-((5-(pyrazolo[1,5-a]pyridin-5-yl)-2,3-dihydro-1H-inden-4-yl)carbamoyl)pyridine-3-sulfonamide], no less than 7.52.
`Cc1cc2c(c(NC(=O)NS(=O)(=O)c3ccnc(N4CCOCC4)c3)c1-c1ccn3nccc3c1)CCC2` [Example 32, N-((6-methyl-5-(pyrazolo[1,5-a]pyridin-5-yl)-2,3-dihydro-1H-inden-4-yl)carbamoyl)-2-morpholinopyridine-4-sulfonamide] had a pIC50 of no less than 7.52.
`Cc1cc2c(c(NC(=O)NS(=O)(=O)c3ccnc(OC4CC4)c3)c1-c1ccn3nccc3c1)CCC2` [Example 33, 2-cyclopropoxy-N-((6-methyl-5-(pyrazolo[1,5-a]pyridin-5-yl)-2,3-dihydro-1H-inden-4-yl)carbamoyl)pyridine-4-sulfonamide] showed a pIC50 of no less than 7.52.
In turn, `Cc1cc2c(c(NC(=O)NS(=O)(=O)c3cncc(OC4CC4)c3)c1-c1ccn3nccc3c1)CCC2` [Example 34, 5-cyclopropoxy-N-((6-methyl-5-(pyrazolo[1,5-a]pyridin-5-yl)-2,3-dihydro-1H-inden-4-yl)carbamoyl)pyridine-3-sulfonamide] showed a pIC50 of no less than 7.52.
Molecule `Cc1cc2c(c(NC(=O)NS(=O)(=O)c3cncc(OC4CCC4)c3)c1-c1ccn3nccc3c1)CCC2` [Example 35, 5-cyclobutoxy-N-((6-methyl-5-(pyrazolo[1,5-a]pyridin-5-yl)-2,3-dihydro-1H-inden-4-yl)carbamoyl)pyridine-3-sulfonamide] gave a pIC50 of no less than 7.52.
Then `Cc1cc2c(c(NC(=O)NS(=O)(=O)c3cncc(N(C)C4CCC4)c3)c1-c1ccn3nccc3c1)CCC2` [Example 36, 5-(cyclobutyl(methyl)amino)-N-((6-methyl-5-(pyrazolo[1,5-a]pyridin-5-yl)-2,3-dihydro-1H-inden-4-yl)carbamoyl)pyridine-3-sulfonamide], with 6.52 to 7.52; and `Cc1cc2c(c(NC(=O)NS(=O)(=O)c3cncc(NC4CC4)c3)c1-c1ccn3nccc3c1)CCC2` [Example 37, 5-(cyclopropylamino)-N-((6-methyl-5-(pyrazolo[1,5-a]pyridin-5-yl)-2,3-dihydro-1H-inden-4-yl)carbamoyl)pyridine-3-sulfonamide], with no less than 7.52; and `Cc1cc2c(c(NC(=O)NS(=O)(=O)c3ccnc(C4CCC4)c3)c1-c1ccn3nccc3c1)CCC2` [Example 38, 2-cyclobutyl-N-((6-methyl-5-(pyrazolo[1,5-a]pyridin-5-yl)-2,3-dihydro-1H-inden-4-yl)carbamoyl)pyridine-4-sulfonamide], with 6.52 to 7.52.
Then `Cc1cc2c(c(NC(=O)NS(=O)(=O)c3ccc(=O)n(CC4CC4)c3)c1-c1ccn3nccc3c1)CCC2` [Example 39, 1-(cyclopropylmethyl)-N-((6-methyl-5-(pyrazolo[1,5-a]pyridin-5-yl)-2,3-dihydro-1H-inden-4-yl)carbamoyl)-6-oxo-1,6-dihydropyridine-3-sulfonamide], with 6.52 to 7.52; and `CC(C)(O)c1csc(S(=O)(=O)NC(=O)Nc2c(-c3ccnc4[nH]ccc34)ccc3c2CCC3)c1` [Example 40, N-((5-(1H-pyrrolo[2,3-b]pyridin-4-yl)-2,3-dihydro-1H-inden-4-yl)carbamoyl)-4-(2-hydroxypropan-2-yl)thiophene-2-sulfonamide], with no less than 7.52.
In the case of `Cn1ccc2c(-c3ccc4c(c3NC(=O)NS(=O)(=O)c3cc(C(C)(C)O)cs3)CCC4)ccnc21` [Example 41, 4-(2-hydroxypropan-2-yl)-N-((5-(1-methyl-1H-pyrrolo[2,3-b]pyridin-4-yl)-2,3-dihydro-1H-inden-4-yl)carbamoyl)thiophene-2-sulfonamide], the pIC50 was no less than 7.52.
Then `CC(C)(O)c1csc(S(=O)(=O)NC(=O)Nc2c(-c3ccn4ccnc4c3)ccc3c2CCC3)c1` [Example 42, 4-(2-hydroxypropan-2-yl)-N-((5-(imidazo[1,2-a]pyridin-7-yl)-2,3-dihydro-1H-inden-4-yl)carbamoyl)thiophene-2-sulfonamide], with no less than 7.52; and `Cn1cnc2ccc(-c3ccc4c(c3NC(=O)NS(=O)(=O)c3cc(C(C)(C)O)cs3)CCC4)cc21` [Example 43, 4-(2-hydroxypropan-2-yl)-N-((5-(1-methyl-1H-benzo[d]imidazol-6-yl)-2,3-dihydro-1H-inden-4-yl)carbamoyl)thiophene-2-sulfonamide], with 6.00 to 6.52; and `Cn1ccc2cc(-c3ccc4c(c3NC(=O)NS(=O)(=O)c3cc(C(C)(C)O)cs3)CCC4)cnc21` [Example 44, 4-(2-hydroxypropan-2-yl)—N-((5-(1-methyl-1H-pyrrolo[2,3-b]pyridin-5-yl)-2,3-dihydro-1H-inden-4-yl)carbamoyl)thiophene-2-sulfonamide], with 6.52 to 7.52.
Then `CC(C)(O)c1csc(S(=O)(=O)NC(=O)Nc2c(-c3cncc4[nH]ccc34)ccc3c2CCC3)c1` [Example 45, N-((5-(1H-pyrrolo[2,3-c]pyridin-4-yl)-2,3-dihydro-1H-inden-4-yl)carbamoyl)-4-(2-hydroxypropan-2-yl)thiophene-2-sulfonamide], with 6.00 to 6.52.
Then `CC(C)(O)c1csc(S(=O)(=O)NC(=O)Nc2c(-c3cnc4[nH]ccc4c3)ccc3c2CCC3)c1` [Example 46, N-((5-(1H-pyrrolo[2,3-b]pyridin-5-yl)-2,3-dihydro-1H-inden-4-yl)carbamoyl)-4-(2-hydroxypropan-2-yl)thiophene-2-sulfonamide], with 6.52 to 7.52; and `Cn1ccc2c(-c3ccc4c(c3NC(=O)NS(=O)(=O)c3cc(C(C)(C)O)cs3)CCC4)cncc21` [Example 47, 4-(2-hydroxypropan-2-yl)-N-((5-(1-methyl-1H-pyrrolo[2,3-c]pyridin-4-yl)-2,3-dihydro-1H-inden-4-yl)carbamoyl)thiophene-2-sulfonamide], with 6.00 to 6.52; and `Cn1ncc2c(-c3ccc4c(c3NC(=O)NS(=O)(=O)c3cc(C(C)(C)O)cs3)CCC4)ccnc21` [Example 48, 4-(2-hydroxypropan-2-yl)-N-((5-(1-methyl-1H-pyrazolo[3,4-b]pyridin-4-yl)-2,3-dihydro-1H-inden-4-yl)carbamoyl)thiophene-2-sulfonamide], with 6.52 to 7.52.
`CC(C)(O)c1csc(S(=O)(=O)NC(=O)Nc2c(-c3ccnc4c3ccn4C3CC3)ccc3c2CCC3)c1` [Example 49, N-((5-(1-cyclopropyl-1H-pyrrolo[2,3-b]pyridin-4-yl)-2,3-dihydro-1H-inden-4-yl)carbamoyl)-4-(2-hydroxypropan-2-yl)thiophene-2-sulfonamide]: the pIC50 is 6.52 to 7.52.
`CC(C)n1ccc(S(=O)(=O)NC(=O)Nc2c(-c3ccnc4c3ccn4C)ccc3c2CCC3)n1` [Example 50, 1-isopropyl-N-((5-(1-methyl-1H-pyrrolo[2,3-b]pyridin-4-yl)-2,3-dihydro-1H-inden-4-yl)carbamoyl)-1H-pyrazole-3-sulfonamide] gave a negative-log IC50 (pIC50) of 6.00 to 6.52.
The molecule `CC(C)(O)c1csc(S(=O)(=O)NC(=O)Nc2c(-c3ccc4nccn4c3)ccc3c2CCC3)c1` [Example 51, 4-(2-hydroxypropan-2-yl)-N-((5-(imidazo[1,2-a]pyridin-6-yl)-2,3-dihydro-1H-inden-4-yl)carbamoyl)thiophene-2-sulfonamide] had a pIC50 of no less than 7.52.
